For data set [1], the system named is Pseudomonas aeruginosa. The data set can be described thus: Antibacterial activity against Carbapenem-resistant Pseudomonas aeruginosa assessed as inhibition of bacterial growth measured after 24 hrs by broth microdilution method. It is filed as functional. For orientation: In broth dilution the organism is exposed to a series of concentrations in liquid medium.

For data set [2], the system named is Salmonella typhimurium. The experiment in a line: Antibacterial activity against Salmonella typhimurium assessed as inhibition of bacterial growth measured after 24 hrs by broth microdilution method. Conditions: Salmonella enterica. It is filed as functional, Salmonella enterica subsp. enterica serovar Typhimurium.
The nature of data set [3]: Stability of the compound in human serum assessed as peptide degradation by RP-HPLC analysis. It is filed as ADME, cell-free. The settings on record: read-out: T50 (converted).
Data set [4] is described as follows: Stability of the compound in human serum assessed as retention time by RP-HPLC analysis. It is filed as ADME, cell-free.
The test system of data set [5] is NIH3T3. The data set can be described thus: Cytotoxicity against mouse NIH3T3 cells assessed as cell viability measured upto 50 uM incubated for 24 hrs by CCK-8 assay. It is filed as toxicity, cell-based. Conditions: nih3t3, 24 h. (In general: Formazan colour is commonly taken as a measure of viable cells.)
Data set [6] deals with Escherichia coli. The data set can be described thus: Induction of metabolism related pathways in Escherichia coli assessed as energetic metabolism pathway mRNAs at 12.5 uM measured after 2 hrs incubation by PCR analysis. The format is functional, organism-based.
The test system of data set [7] is Escherichia coli. The data set can be described thus: Induction of metabolism related pathways in Escherichia coli assessed as protein synthesis pathway mRNAs at 12.5 uM measured after 2 hrs incubation by PCR analysis. The format is functional, organism-based.
Data set [8] has as its system Escherichia coli. The data set can be described thus: Induction of multiple envelope stress pathway related pathways in Escherichia coli assessed as change in WcaB gene expression at 12.5 uM measured after 2 hrs incubation by PCR analysis. The format is functional, organism-based.
The subject of data set [9] is Escherichia coli. The experiment in a line: Induction of outer membrane synthesis related pathways in Escherichia coli assessed as change in OmpT gene expression at 12.5 uM measured after 2 hrs incubation by PCR analysis. The format is functional, organism-based.
Data set [10] has as its system Escherichia coli. The data set can be described thus: Induction of assembly related pathways in Escherichia coli assessed as change in BamA gene expression at 12.5 uM measured after 2 hrs incubation by PCR analysis. The format is functional, organism-based.
In data set [11] the test system is Escherichia coli. The experiment in a line: Induction of LPS transport pathway related genes in Escherichia coli assessed as change in LptD gene expression at 12.5 uM measured after 2 hrs incubation by PCR analysis. It is filed as functional, organism-based.
A short description of data set [12]: Toxicity in C57BL/6 mouse assessed as death at 25 mg/kg, ip measured during 14 days of study. It is filed as organism-based. The settings on record: in vivo, 336 h, time 14 day.
Data set [13] in a line: Toxicity in C57BL/6 female mouse assessed as apparent inflammatory exudates ([…], neutrophiles, macrophages) in lungs at 25 mg/kg, ip measured during 14 days of study by H and E staining based analysis. The format is organism-based. Conditions: in vivo, 336 h, time 14 day.
A short description of data set [14]: Toxicity in C57BL/6 female mouse assessed as haemorrhagic point and blurred white pulp boundary in spleen at 25 mg/kg, ip measured during 14 days of study by H and E staining based analysis. The format is organism-based. Conditions: in vivo, 336 h, time 14 day.
Data set [15] concerns Escherichia coli. The data set can be described thus: In vivo antibacterial activity against Escherichia coli intraperitoneally injected into C57BL/6 mouse peritonitis model assessed as reduction in bacterial load in lung at 2.5 mg/kg, ip measured after 48 hrs relative to control. The format is functional, organism-based.
In data set [16] the test system is Mus musculus. The experiment in a line: In vivo anti-inflammatory efficacy in Escherichia coli intraperitoneally injected into C57BL/6 mouse peritonitis model assessed as reduction in IL-6 level in blood at 2.5 mg/kg, ip measured after 48 hrs by ELISA. It is filed as functional, organism-based.

Converted amounts (≈) assume the structure as drawn. The source made the active and inactive calls. The rule behind the calls is not given here. Bridge positions count the residues as written; N and C are the ends. Square brackets hold non-standard residues; d marks the D form. Peptide text beside a SMILES is read from it. S5 = C=CCCC[C@](C)(N)C(=O)O

In general, MIC refers to the lowest concentration found to suppress growth. `CC[C@H](C)[C@H](NC(=O)CNC(=O)[C@H](CC(=O)O)NC(=O)[C@H](CCCNC(=N)N)NC(=O)[C@@H](NC(=O)[C@H](CC(N)=O)NC(=O)[C@H](CCC(N)=O)NC(=O)CNC(=O)[C@@H](NC(=O)[C@H](CCCCN)NC(=O)[C@H](CCC(=O)O)NC(=O)[C@@H](NC(=O)[C@H](CCCCN)NC(=O)[C@H](CCCCN)NC(=O)[C@H](Cc1ccccc1)NC(=O)[C@H](CC(C)C)NC(=O)[C@H](CCCCN)NC(=O)[C@H](Cc1c[nH]c2ccccc12)NC(=O)[C@H](CCCCN)NC(C)=O)[C@@H](C)CC)C(C)C)[C@@H](C)CC)C(=O)N[C@H](C(=O)N[C@@H](CCCCN)C(=O)N[C@@H](C)C(=O)NCC(=O)N1CCC[C@H]1C(=O)N[C@@H](C)C(=O)N[C@H](C(=O)N[C@@H](C)C(=O)N[C@H](C(=O)N[C@H](C(=O)NCC(=O)N[C@@H](CCC(N)=O)C(=O)N[C@@H](C)C(=O)N[C@@]1(C)CCC/C=C\CCC[C@@](C)(C(N)=O)NC(=O)[C@H](C)NC(=O)[C@H]([C@@H](C)CC)NC(=O)[C@H](CCC(N)=O)NC1=O)C(C)C)C(C)C)C(C)C)[C@@H](C)CC` (Ac-KWKLFKKIEKVGQNIRDGIIKAGPAVAVVGQA[S5]QIA[S5]-NH2; staple (Z) 33-37): the results for the MIC in data set [1] and in data set [2] were > 100 µM and 3.13 µM (≈ 12.7 µg/mL), respectively. Moreover, the half-life in data set [3] is 9.85 h. Further, in data set [4], the Retention_time came to 25.17 min. The Activity entry in [5] is “Non-toxic”; in [12], “Non-toxic”; in data set [13] it was “Non-toxic”; in data set [14], “Non-toxic”; in data set [15] it was “Active; Compound Showed Enhanced Bacterial Elimination Than Cec-0”. Also, the result in [6], in [7], in [8], in [9], in data set [10] and in data set [11] was Active. In data set [16], the result was Active.

The record behind these values is ChEMBL document CHEMBL6115030, “Systematic All-Hydrocarbon Stapling Analysis for Cecropin A Generates a Potent and Stable Antimicrobial Peptide” (J Med Chem, 2025).
